Assay [1] has as its target transcriptional activator-FKBP12 and Lex A DNA Binding Domain-Hormone Binding Domain of the Rat Glucocorticoid Receptor (UniProt P06536+P62942, C656G/F620S). The experiment in a line: Yeast three hybrid screen, Lex A system (EGY48; lacZ and leu 2 reporters). The class given is cell-based, Saccharomyces cerevisiae (EGY 48). Conditions: 2% galactose. The text has this:
A first vector containing the cDNA fragment encoding FKBP 12-transcriptional module was formed as follows. The cDNA encoding FKBP 12 was originally obtained from a human cDNA library prepared according to well known techniques (Current Protocols in Molecular Biology). The cDNA encoding the FKBP12 was amplified by PCR and subcloned into the EcoRI and XhoI sites of the pJG4-5 vector where the pJG4-5 vector already contains the transcriptional activator module. (Current Protocols in Molecular Biology). The resulting vector is called pJGFKBP.
A second vector encoding the hormone binding domain of rat glucocorticoid receptor (FIG. 4) and the Lex A binding protein was made as follows: A clone containing the full length rat glucocorticoid receptor with the C656G mutation was obtained according to Chakrabati et al. Journal of Biological Chemistry, (1991) vol 266, pp22075-22078. A fragment encoding amino acid residues 497-795 of the protein with the F620S mutation was generated by a standard two-step PCR reaction routinely used for the creation of point mutations. This fragment was flanked by restriction sites for MfeI and XhoI, and was subcloned into the EcoRI and XhoI sites of the pEG202 vector (Current Protocols in Molecular Biology) where the pEG202 vector contains the sequence which encodes for a protein which binds the bacterial Lex A operator. The resulting hybrid construct, designated pEGHDP encodes the second hybrid protein in the assay.
A third vector identified as pSH18-34 and containing the lacZ reporter gene downstream of a number of Lex A operators was made following standard techniques. (Current Protocols in Molecular Biology).
Saccharomyces cerevisiae (EGY 48) [Current Protocols on Molecular Biology], was transformed with the three vectors described above using standard lithium acetate transformation procedures. Positive transformants were selected by plating cells on complete minimal media yeast dropout plates containing 2% glucose, and lacking histidine, tryptophan and uracil. The transformed EGY48 yeast were then screened as described below.
(FIG. 6). […] This experiment was also performed on similar plates which were also leu^-. The leu 2 gene is used in EGY48 as a second reporter gene. Only yeast that grow in the absence of leucine contain a trimeric complex. These yeast grew well, with isolated colonies clearly visible at two days. Two control experiments were conducted by plating the transformed EGY48 strain onto complete minimal media Ura^-, His^-, Trp^- yeast dropout plates as in the aforementioned cases except the plates contained 2% glucose instead of 2% galactose. In the absence of galactose, the hybrid transcriptional activator-FKBP12 protein was not expressed since the gene encoding it is under the Gal1 promoter. […]

Assay [2] deals with T1, Gal 4 activation domain-human FKBP12 and Gal4 DNA binding domain-hormone binding domain of rat glucocorticoid receptor (UniProt P06536+P62942, C656G/F620S). Conditions: 10 μM FK506 with 1 μM dexamethasone-FK506, 30 mM 3-aminotriazole, three days.
T1 sequence (P62942 2-108): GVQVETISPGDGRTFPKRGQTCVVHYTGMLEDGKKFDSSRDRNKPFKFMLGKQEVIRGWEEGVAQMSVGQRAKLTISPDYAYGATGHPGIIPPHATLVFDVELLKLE
T1 sequence (P06536 497-795 F620S/C656G): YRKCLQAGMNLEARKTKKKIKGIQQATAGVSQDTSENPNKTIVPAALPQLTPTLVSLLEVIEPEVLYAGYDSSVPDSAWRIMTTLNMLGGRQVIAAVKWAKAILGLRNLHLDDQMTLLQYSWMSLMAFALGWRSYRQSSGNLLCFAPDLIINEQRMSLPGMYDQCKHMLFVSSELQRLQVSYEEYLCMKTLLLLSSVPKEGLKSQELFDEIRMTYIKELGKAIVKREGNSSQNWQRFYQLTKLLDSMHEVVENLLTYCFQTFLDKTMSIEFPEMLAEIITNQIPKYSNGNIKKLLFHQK
Method: A three-hybrid assay using a second Gal4 DNA binding domain and activation domain as described by Fields et al. (U.S. Pat. No. 5,468,614) and by Durfee et al. (1993) Genes and Development vol 7, pg 555-569 was evaluated. The hormone binding domain of rat glucocorticoid receptor (residues 497-795) containing either a single or double mutations (C656G and F620S) was PCR amplified using primers tagged with restriction sites and subcloned into the vector pASII to encode a fusion protein between the Gal4 DNA binding domain and the hormone binding domain of rat glucocorticoid receptor to give a plasmid pASHBD. The coding sequence of human FKBP12 was PCR amplified and subcloned into the vector pACTII to include a fusion protein between Gal 4 activation domain and human FKBP12. The resultant vector is called pACTFKBP. The vectors pASHBD and pACTFKBP were transformed into the yeast strain Y190 using lithium acetate method and the transformed yeast were selected on SC (Leu^-, Trp^-).
For assay [3], the target named is T1, Gal 4 activation domain-human FKBP12 and Gal4 DNA binding domain-hormone binding domain of rat glucocorticoid receptor. The class given is cell-based, yeast strain Y190. Conditions: FK506 1 to 10 μM with 1 μM dexamethasone-FK506, 30° C., 12-16 hours. On the procedure:
The above yeast system has both a His- biosynthetic gene and a LacZ reporter gene as reporters for detection of three-hybrid interactions. We performed liquid β-galactosidase assay as follows. […] The culture were shaken vigorously at 30° C. for 12-16 hours. The yeast were harvested and the amount of β-galactosidase activity were quantified using established procedure (Current Protocol in Molecular Biology, Chapt. 13). […] This system is applied for screening a cDNA library to identify FKBPs that binds to FK506. The screening procedures are identical to those employed in Example 1.

For assay [4], the system named is FK506 binding proteins (FKBP). Conditions: cited from earlier work.
Assay [5] relates to Jurkat cDNA library subcloned into pJG4-5. Conditions: 1 μM dexamethasone-FK506; growth inhibited by 10 μM FK506. On the procedure:
The yeast strain: EGY48 ura3 trp1 his3 Lex A operator-LEU 2; was transformed with pEGHDP and PSH18-34 and plated onto synthetic complete (SC) medium (His^-, Ura^-). The resultant EGY48 harboring pEGHBD and pSH18-34 was transformed with a Jurkat cDNA library subcloned into pJG4-5. […] Colonies were collected between days four and ten. All colonies were plated onto SC medium (His^-, Ura^-, Trp^-, Leu^-) containing galactose.

Assay [6] has as its system glucocorticoid receptor. Conditions: cited from earlier work.

transcriptional activator-FKBP12 and Lex A DNA Binding Domain-Hormone Binding Domain of the Rat Glucocorticoid Receptor, sequence (P62942 2-108): as the sequence (P62942 2-108) above
transcriptional activator-FKBP12 and Lex A DNA Binding Domain-Hormone Binding Domain of the Rat Glucocorticoid Receptor, sequence (P06536 497-795 F620S/C656G): as the sequence (P06536 497-795 F620S/C656G) above

Turning to `C=CC[C@@H]1/C=C(\C)C[C@H](C)C[C@H](OC)[C@H]2O[C@@](O)(C(=O)C(=O)N3CCCC[C@H]3C(=O)O[C@H](/C(C)=C/[C@@H]3CC[C@@H](O)[C@H](OC)C3)[C@H](C)[C@@H](O)CC1=O)[C@H](C)C[C@@H]2OC` [FK506], in assay [1] (10 μM FK506 with 1 μM dexamethasone-FK506 hybrid ligand), the “competitive inhibition of trimeric complex formation / Lac Z activation (yeast color)” value was “all of the yeast remained white”. In addition, the “yeast colonies on selective plates in competition with hybrid ligand” value in assay [2] is on record as “absent”. Besides, in assay [3], the “β-galactosidase activity in competition with hybrid ligand” value is “decrease in a FK506 dose-dependent manner”. The “binding affinity to FKBPs when linked through the effector domain” value in assay [4] (FK506 linked through the effector domain) is recorded as “low nanomolar binding affinity”. In assay [4] (free FK506), the “binding affinities for FKBPs” value is given as “in the nanomolar range”.
Take dexamethasone-FK506: in assay [1] (1 μM hybrid ligand, Ura-, His-, Trp- plates with X-Gal), the “reporter gene activation (Lac Z, blue color on X-Gal)” value is “the yeast were blue at three days”. The “time at which light blue color signifying reporter gene activation began to arise” value in assay [1] (1 μM hybrid ligand, X-Gal plates) is recorded as “approximately 36 hours”. The “growth in the absence of leucine (leu 2 reporter gene)” value in assay [1] (1 μM hybrid ligand, leu- plates) is recorded as “grew well”. For the same compound, the “protein encoded by cDNA clones isolated with the hybrid ligand” value in assay [5] was “found to encode human FKBP12”.
Turning to `C[C@@H]1C[C@H]2[C@@H]3CCC4=CC(=O)C=C[C@]4(C)[C@@]3(F)[C@@H](O)C[C@]2(C)[C@@]1(O)C(=O)CO` [dexamethasone], the “affinity for the glucocorticoid receptor” value in assay [6] is on record as “high affinity”.

The values above are taken from US5928868A, “Three hybrid screening assay” (Massachusetts Institute of Technology, priority 1997, dated 1999).
